# Entries after “also recorded” stand apart in the source; their conditions may differ.
# Columns and labels:
# [1] = system: gastric slow wave; test: Azithromycin motility experiment: MiGUT recording in the stomach of anesthetized swine before and after intravenous prokinetic delivery; format: in vivo, Yorkshire swine; conditions: anesthetized pig
# Description: Motivated by the capability of the MiGUT system to detect gastric slow wave activity, an experiment was designed to test if the changes or modulations in gastric motility could also be detected. The MiGUT system was again placed in the porcine stomach of an anesthetized animal and following baseline recording, azithromycin, a known prokinetic which activates motilin receptors, was intravenously delivered (1 mg/kg total dose) via ear catheter over the course of 5 minutes (FIG. 10A(i)). […] Replicates of this experiment produced similar increases in the slow wave power (FIG. 12).
# All animal experiments were approved by and performed in accordance with the Committee on Animal Care at MIT. Yorkshire swine were obtained from Cummings School of Veterinary Medicine at Tufts University (Grafton, MA, USA) for in-vivo experiments. Pigs weighing approximately 60-100 kg were placed on a liquid diet for 24 hours the day before the study and were fasted overnight prior to the study. For device placement, animals were anesthetized using an intramuscular injection of midazolam 0.25 mg/kg and dexmedetomidine 0.03 mg/kg. Following sedation, animals were placed on thermal support and ophthalmic ointment was applied to both eyes. The animal was intubated and placed on isoflurane (2%) in oxygen and connected to a vital signs monitoring system. The MiGUT device was delivered orally into the stomach, using an orogastric tube and imaged using PENTAX EC-3870TLK (160 cm) to visualize the stomach with the animal in the left lateral position.
# For azithromycin experiments, following ca. 1 hr of baseline recording in the anesthetized animal, 1 mg/kg animal weight of 20 mg/ml Azithromycin (Sigma-Aldrich) solution (in PBS pH adjusted with HCL, Thermofischer) was delivered via ear catheter over the course of 5 minutes. Measurements were conducted for a minimum of 45 minutes following drug delivery. Power was calculated by summing the square of the voltage measurements in a 25 minute time window. Difference in power was calculated as (Pinitial-Pfinal)/Pinitial.
# Finally, to show this system can track changes in motility, Azithromycin was administered halfway during six studies. […] It was intravenously delivered at 1 mg/kg over 5 minutes through an ear catheter. […] This indicates throughout this duration of increased gastric activity (with suspected contractions), the electrodes continued to make good contact. Thus, MiGUT is shown to be able to track changes in gastric motility and maintain a reliable interface with the mucosa.
# [2] = system: gastric slow wave and all other recorded signals; test: Animal euthanasia study: MiGUT recording during administration of a barbiturate cocktail; format: in vivo, Yorkshire swine; conditions: pig, euthanization during recording; 1 ml/10 lbs
# Text: In an anesthetized Yorkshire pig, the device was delivered into the stomach and the electrode is shown to unroll and conform to the gastric mucosa along the greater curvature of the stomach (FIG. 7A). The reference electrode was localized near the stomach corpus (Schematic in FIG. 8). One and a half hours of recorded data in this experiment (at 62.5 samples/s) was used to generate a heat map of electrical activity vs time and channel (FIG. 7B(i)). Initial electrical activity seen in all channels following device placement (t=0 to 500 seconds) is most likely due to mechanical stimulation as a consequence of endoscopic visualization following device deployment. Channels near the pylorus (FIG. 7B(ii), channels 0-2) measured large amplitude, prolonged waveforms with periods of ca. 500 seconds with approximately 6 total cycles. […] These signals were also observed in separate experiments using the MiGUT system in different animals (N=5, Table 1).
# For non-survival procedures, the animal was sedated with intramuscular injection of Telazol (tiletamine/zolazepam) 5 mg/kg and xylazine 2 mg/kg and euthanized using Fatal Plus (sodium pentobarbital), 1 ml/10 lbs. Heart rate and respiration rate are assessed via vitals monitor to ensure that the pig has been euthanized. […]
SMILES,"changes in the respiration and heart rate frequency bands ([1]; 1 mg/kg i.v. over 5 minutes through ear catheter, six studies)","amplitude of the slow wave ([1]; 1 mg/kg i.v. over 5 minutes through ear catheter, six studies, seen in five of the recording channels)","power in the EKG or respiratory frequency windows ([1]; 1 mg/kg i.v. over 5 minutes, 25 minutes after vs 25 minutes prior to dosing)","power in the slow wave frequency range ([1]; 1 mg/kg i.v. via ear catheter over 5 minutes, 25 minutes after vs 25 minutes prior to dosing, seen in 5 of the 8 recording channels)",effect on waveforms recorded by MiGUT (slow wave and all other signals) [2]
CC[C@H]1OC(=O)[C@H](C)[C@@H](O[C@H]2C[C@@](C)(OC)[C@@H](O)[C@H](C)O2)[C@H](C)[C@@H](O[C@@H]2O[C@H](C)C[C@H](N(C)C)[C@H]2O)[C@](C)(O)C[C@@H](C)CN(C)[C@H](C)[C@@H](O)[C@]1(C)O [azithromycin],no significant changes,significant increase,no significant change in power,noticeable increase in power,
"CCCC(C)C1(CC)C(=O)N=C([O-])NC1=O.[Na+] (centres unmarked) [barbiturate cocktail, sodium pentobarbital]",,,,,terminated; also recorded: cessation of all waveforms

# From patent US20250120643A1, “INGESTIBLE AND/OR IMPLANTABLE ARTICLES FOR MONITORING ELECTRICAL SIGNALS AND RELATED METHODS” (Massachusetts Institute of Technology, priority 2023, published 2025)
